In patent publication US20240238425A1, “HSD17B13 Inhibitors and/or Degraders” (Pfizer Inc., priority 2022, published 2024):
Where a name gives a salt, the structure may show the parent alone.

Test system: HiBiT-HSD17β13 fusion protein (N-terminal HiBiT-tagged HSD17β13 isoform D) in Huh7 HiBiT-HSD17β13 OE cells
Assay: Whole-cell Huh7-HSD17B13 HiBiT assay (degrader potency and maximal efficacy, luminescence readout)
Assay type: cell-based, human
Conditions: 24 hour incubation, geometric mean, * = geometric mean for all forms tested (parent and salt forms); for DC50: read-out: Huh7_HIBIT-HSD17β13_DC50 GMean DC50; for Huh7_HIBIT-HSD17β13_DC50 GMean Asymptote Maximum: max. concentration 1 μM
Method in brief: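 Huh7 cells stably overexpressing N-terminal HiBiT-tagged HSD17β13 isoform D, clone matched to primary hepatocyte expression, were exposed to an 11-point, 1 in 3.162 dilution series (top 1 μM final) for 24 h at 37° C. Lytic HiBiT luminescence was normalised to DMSO and parental-cell controls; DC50 from four-parameter logistic fit, with CellTiter-Glo counter screen.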

Question: How did the DC50 turn out when `O=C1CCN(c2cnn3cc(CCCN4Cc5ccc(-c6ccc7cn([C@H]8CC[C@H](CNC(=O)c9cc(F)c(O)c(F)c9F)CC8)nc7c6)cc5C4)ccc23)C(=O)N1` [Example 131, N-({(1r,4r)-4-[6-(2-{3-[3-(2,4-dioxo-1,3-diazinan-1-yl)pyrazolo[1,5-a]pyridin-6-yl]propyl}-2,3-dihydro-1H-isoindol-5-yl)-2H-indazol-2-yl]cyclohexyl}methyl)-2,3,5-trifluoro-4-hydroxybenzamide, trifluoroacetate salt] was run?
Answer: 0.87 nM

Question: What about the “Huh7_HIBIT-HSD17β13_DC50 GMean Asymptote Maximum” value of the same molecule?
Answer: 78%

Question: Which DC50 does the source give for `Cn1nc(N2CCC(=O)NC2=O)c2ccc(CCCN3CCN(c4nccc(-c5nc([C@]67CC[C@](CNC(=O)c8cc(F)c(O)c(F)c8F)(CC6)CC7)no5)n4)CC3)cc21` [Example 133, N-[(4-{5-[2-(4-{3-[3-(2,4-dioxo-1,3-diazinan-1-yl)-1-methyl-1H-indazol-6-yl]propyl}piperazin-1-yl)pyrimidin-4-yl]-1,2,4-oxadiazol-3-yl}bicyclo[2.2.2]octan-1-yl)methyl]-2,3,5-trifluoro-4-hydroxybenzamide, trifluoroacetate salt] here?
Answer: 2.1 nM

Question: What about the “Huh7_HIBIT-HSD17β13_DC50 GMean Asymptote Maximum” value of the same molecule?
Answer: 73%
